Results taken from patent US20160038519A1, “ADMINISTRATION OF KARENITECIN FOR THE TREATMENT OF ADVANCED OVARIAN CANCER, INCLUDING CHEMOTHERAPY-RESISTANT AND/OR THE MUCINOUS ADENOCARCINOMA SUB-TYPES” (BioNumerik Pharmaceuticals, Inc., priority 2014, published 2016).
Where two headings read alike, the source gives them in different places.

Columns and labels:
JHOM2B Cell Line = test: SRB cytotoxicity assay, JHOM2B; format: cell-based, human; conditions: Homo sapiens
Procedure: (§1) In vitro studies were conducted in human mucinous ovarian cancer cell lines including JHOM2B, OMC3, and COV644. In one series of experiments, the dose response curves for BNP1350 (also known as Karenitecin), SN-38 (Irinotecan), and Topotecan were obtained and IC50 values were determined. In a second series of experiments, the effect of BNP7787 (2,2′-dithio-bis-ethane sulfonate; Tavocept) on BNP1350-induced cytotoxicity at selected BNP1350 concentrations was examined.
(§2) The JHOM2B and OMC3 cell lines were purchased from Riken Cell Bank (Japan). The COV644 cell line was purchased from SigmaAldrich. Cells were maintained as monolayered cultures in T-75 flasks and then seeded to microtiter plate wells for experiments. Population doubling-times for these three cell lines were long (i.e., exceeding 40 hours, and for some of the cell lines approaching 96 hours); therefore, the Applicants conducted initial pilot experiments and determined optimal seeding density to obtain A570 values in untreated controls that would fall within the linear range of the SRB assay after seven (7) total days of cell growth. JHOM2B cells were cultured in DMEM:F12 (1:1)+0.1 mM non-essential amino acids (NEAA)+10% FBS and were seeded at 6,000 cells per well. OMC3 cells were cultured in HamF12+10% FBS and were seeded at 8,000 cells per well. COV644 cells were cultured in DMEM+2 mM glutamine+10% FBS and were seeded at 6,000 cells per well.
(§3) The cells were manipulated in a Microzone laminar flow hood traditionally used for maintaining aseptic environments around automated instrumentation such as microplate robots, and the like. Cells were grown and maintained at 37° C. in a humidified atmosphere containing 5% CO2 in a water jacketed cell culture incubator (Forma Scientific). Cells were counted using a ViCell counter (Beckman-Coulter). An automated plate washer/stacker (ELx405/BioStak from BioTek Instruments) and a microplate reader (SpectraMax Plus from Molecular Devices) were used for conducting the SRB assay and determining A570 values for wells in the plates and the percentage of control values. Prior to SRB assays, cell viability was monitored by evaluation of microtiter plate wells. Dead cells detach and float while living cells remain attached to the bottom of the cell well.
(§4) SN-38 (Irinotecan; Sigma H0165, lot MKBQ4981) and Topotecan (Sigma T2705, lot 052M4728V) were purchased from SigmaAldrich. BNP1350 (lot KN-C192-135) and BNP7787 (lot 205001) were synthesized at BioNumerik Pharmaceuticals, Inc. (San Antonio, Tex.). BNP1350, SN38, and Topotecan were prepared as 2.5, 2.5, and 25 mM stocks in DMSO (ATCC, cell culture grade).
(§5) The sulforhodamine B (SRB) cytotoxicity assay was used to assess cell survival. Briefly, after the medium was decanted from individual plate wells, trichloroacetic acid (100 μL of 10.0 percent solution) was added to each well, and the plates were incubated at 4° C. for 1 hour. The plates were washed five times with water using an automated microplate washer (Model ELx405, Bio-Tek Instruments), SRB solution (100 μL of 0.4% SRB dissolved in 1.0 percent acetic acid) was added, and plates remained at room temperature for 15 minutes. The plates were then washed five times using acetic acid (1.0 percent), air dried, and bound dye was solubilized in Tris base (150 μL, 10 mM). Plates were agitated (gently) for 5 minutes and the absorbance values of the SRB dye-protein adduct at 570 nanometers (A570) were determined using an automated microtiter plate reader (SpectraMax Plus, Molecular Devices). IC50 values were extrapolated from dose response curves of the data using OriginLab Software.

[1] = target: T1, Breast Cancer Resistance Protein (BCRP) (Homo sapiens, UniProt Q9UNQ0); conditions: cited from earlier work
T1 sequence (Q9UNQ0 1-655): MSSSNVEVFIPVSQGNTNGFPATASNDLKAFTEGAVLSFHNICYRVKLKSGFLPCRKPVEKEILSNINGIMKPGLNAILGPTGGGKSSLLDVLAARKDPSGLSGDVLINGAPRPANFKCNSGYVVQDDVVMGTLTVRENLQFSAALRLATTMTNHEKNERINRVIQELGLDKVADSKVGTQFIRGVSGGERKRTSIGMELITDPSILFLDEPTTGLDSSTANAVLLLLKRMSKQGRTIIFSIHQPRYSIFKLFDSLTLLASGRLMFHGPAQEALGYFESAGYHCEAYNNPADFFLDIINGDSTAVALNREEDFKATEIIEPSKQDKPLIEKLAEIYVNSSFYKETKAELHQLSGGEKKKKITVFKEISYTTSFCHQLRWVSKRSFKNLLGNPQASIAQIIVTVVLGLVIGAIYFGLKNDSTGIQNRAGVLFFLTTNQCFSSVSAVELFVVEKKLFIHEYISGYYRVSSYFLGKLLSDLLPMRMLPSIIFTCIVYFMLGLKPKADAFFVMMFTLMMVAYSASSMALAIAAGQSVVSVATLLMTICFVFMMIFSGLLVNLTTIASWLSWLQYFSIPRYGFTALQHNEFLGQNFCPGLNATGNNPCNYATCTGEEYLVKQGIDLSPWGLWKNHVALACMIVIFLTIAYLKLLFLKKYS

COV644 Cell Line = test: SRB cytotoxicity assay, COV644; format: cell-based, human
Procedure: as §1, §2, §3, §4, §5
The 1050 values exceeded the solubility in medium for each compound—the limit of solubility in cell culture medium for the compounds were as follows: 2 micromolar for BNP1350 and SN38, and 20 micromolar for Topotecan. Cells were treated for periods of 2.5 hours or 6 hours and, in each case, the […] values were not reached. Longer treatments were not performed.

Fischer rats = conditions: rat, in vivo, iv
OMC3 Cell Line = test: SRB cytotoxicity assay, OMC3; format: cell-based, human; conditions: Homo sapiens
Procedure: as §1, §2, §3, §4, §5

beagle dogs = conditions: dog, in vivo, iv
solid tumors = conditions: for Time on trial with no evidence of progressive disease: oral
Procedure: A Phase I clinical trial (the “Oral Karenitecin Phase I Trial”) was performed to determine the maximum tolerated dose (MTD) of oral Karenitecin in subjects with solid tumors given in a dose-escalated manner (starting at 0.5 mg/m^2) and administered 3-times per week (MWF or TTS) for 3 consecutive weeks followed by a one-week treatment rest.
In Stage I, subjects received Karenitecin as a single oral dose 3 times per week for 3 consecutive weeks followed by a one-week treatment rest. In Stage 1, some of subjects underwent pharmacokinetic sampling, and first received a single i.v. dose of Karenitecin (at the appropriate dosage level) followed by oral Karenitecin 4 to 7 days following the i.v. dose on a MWF or TTS schedule. Patients then received oral Karenitecin for all subsequent treatments.
In Stage 2, Karenitecin was administered in a dose-escalated manner to approximately 16 subjects with solid tumors in order to determine the maximum tolerated dose (MTD). The initial dose escalation involved cohorts of one new subject per dose level. The starting dose was 0.5 mg/m^2 and dose escalation proceeded in 0.5 mg/m^2 increments. One-subject cohorts were utilized until the occurrence of a dose-limiting toxicity (DLT) or NCI CTCAE≧grade 2 toxicity was observed during the DLT observation period. Patients in Stage 2 received oral Karenitecin at the appropriate dose level on a MTWTF schedule for three (3) consecutive weeks, followed by a one-week rest period.

[2] = 2 hour drug exposure, average of Test 1 and Test 2, read-out: IC50, Average
[3] = 2 hour drug exposure, read-out: IC50, Test 1 (2 replicate plates)
[4] = 2 hour drug exposure, read-out: IC50, Test 2 (3 replicate plates)

CC[C@@]1(O)C(=O)OCc2c1cc1n(c2=O)Cc2c-1nc1ccccc1c2CC[Si](C)(C)C [Karenitecin, (4S)-4-ethyl-4-hydroxy-11-[2-(trimethylsilyl)ethyl]-1H-pyrano[3′:4′:6,7]indolizino[1,2-b]quinoline-3,14(4H,12H)-dione]
IC50 (JHOM2B Cell Line; [2]): 69.5 nM
IC50 (JHOM2B Cell Line; [3]): 61 ± 4 nM
IC50 (JHOM2B Cell Line; [4]): 78 ± 9 nM
IC50 (JHOM2B Cell Line; read-out: IC50 values): 69.5 nM
Sensitivity to tumor-mediated drug resistance mechanisms, including BCRP [1]: insensitive
IC50 (COV644 Cell Line; Homo sapiens, 2, 5, and 6 hour drug exposures, did not reach 50% of Control, read-out: IC50, Test 1 (2 replicate plates)): > 2000 nM
IC50 (COV644 Cell Line; Homo sapiens, 2, 5, and 6 hour drug exposures, did not reach 50% of Control, read-out: IC50, Test 2 (2 to 3 replicate plates)): > 2000 nM
IC50 (COV644 Cell Line; Homo sapiens, 2, 5, and 6 hour drug exposures, read-out: IC50, Average): > 2000 nM
IC50 (COV644 Cell Line; Homo sapiens, read-out: IC50 values): > 2000 nM
Toxicities observed (Fischer rats): reversible myelosuppression (predominantly neutropenia)
IC50 (OMC3 Cell Line; [2]): 49.5 nM
IC50 (OMC3 Cell Line; [3]): 57 ± 4 nM
IC50 (OMC3 Cell Line; [4]): 42 ± 6 nM
IC50 (OMC3 Cell Line; read-out: IC50 values): 49.5 nM
Toxicities observed (beagle dogs): reversible myelosuppression (predominantly neutropenia)
Tolerability of oral administration (solid tumors; in vivo, po): generally well-tolerated
Time on trial with no evidence of progressive disease (solid tumors; a patient with advanced ovarian cancer): approximately 16 months
Time on trial with no evidence of progressive disease (solid tumors; a patient with breast cancer): approximately 19.5 months
Time on trial with no evidence of progressive disease (solid tumors; a patient with carcinoma of the parotid gland): approximately 12 months
Time on trial with no evidence of progressive disease (solid tumors; a patient with colorectal cancer): approximately 8 months
Time on trial with no evidence of progressive disease (solid tumors; a patient with leiomyosarcoma): approximately 7 months
Time on trial with no evidence of progressive disease (solid tumors; a patient with melanoma): approximately 15 months
Time on trial with no evidence of progressive disease (solid tumors; a patient with neuroendocrine cancer): approximately 23 months
Time on trial with no evidence of progressive disease (solid tumors; a patient with non-small cell lung cancer): approximately 36 months
Time on trial with no evidence of progressive disease (solid tumors; a patient with pancreatic cancer): approximately 7 months
Time on trial with no evidence of progressive disease (solid tumors; a patient with peritoneal papillary adenocarcinoma cancer): approximately 8 months
Time on trial with no evidence of progressive disease (solid tumors; a patient with prostate cancer): approximately 7 months
Time on trial with no evidence of progressive disease (solid tumors; a patient with refractory small cell cancer): approximately 6 months
Time on trial with no evidence of progressive disease (solid tumors; a patient with sarcoma): approximately 9 months
